According to a melting point compilation (Tetko et al.; mined from patent text by program, amines drawn as free bases though some values may be those of a salt):

Compound	melting point [°C]
Cc1csc2ccc3[nH]c4c(c3c12)CN(Cc1ccccc1)CC4	93
CC(C)c1c(C(=O)c2cc(Cl)cc(Cl)c2)[nH]c(=O)[nH]c1=O	252 to 253
NC(=O)c1cc2cccc(N(CC3CC3)S(=O)(=O)c3cccs3)c2[nH]1	229 to 231
Cc1nn(-c2cc(Oc3ccc(N)cc3Cl)c(Cl)cc2Cl)c(=O)n1C(F)F	161 to 162
CCCC1=C(C#N)C(c2ccccc2Cl)c2c(n[nH]c2-c2ccc(OC)cc2)N1 (stereo unspecified)	284
Cc1ccc2ccc3ccccc3c2c1O	88 to 92
COCc1cc(-c2nnc3c4ccccc4c(OCc4ncn(C)n4)nn23)no1	236
CC(C)c1nn(-c2ccc(C(F)(F)F)cn2)cc1CCCOc1cccc(CCC(=O)O)c1	102 to 103
CN1CC(CCCl)Sc2ncccc2C1=S (stereo unspecified)	160 to 162
COc1nc2cc(Cl)c(Cl)c(N(CC(=O)O)S(C)(=O)=O)c2nc1OC	203 to 206
COC1(OC)CCN(c2cc3c(cc2F)c(=O)c(C(=O)O)cn3C2CC2)C1	224 to 226
CC1(C)OC(c2ccc(S(C)(=O)=O)cc2)=C(c2cccc([N+](=O)[O-])c2)C1=O	158 to 159
C=CC(=O)NCC(C(C)=O)C(=O)c1ccccc1 (stereo unspecified)	125 to 126
CC[C@@H]1N(c2ccc(C#N)c(Cl)c2)C(=O)C[C@@]1(O)C1CC1	128 to 132
CCOC(=O)c1cc(O)n2c(C)nnc2n1	201 to 203
CC(C)(C)OC(=O)NCC1=CC(c2ccccc2)Cc2c1ccc(OC(=O)C(C)(C)C)c2OC(=O)C(C)(C)C (stereo unspecified)	64 to 69
COc1cc(NCCC(=O)O)c(C(C)=O)cc1OC	150 to 152
C[C@H](O)CCC[C@H](O)CCCCCc1cc(O)cc(O)c1C(=O)O	116 to 118
CC(C)=CCCNC(=S)Nc1nc(C)cs1	164 to 166
O=C(CCOc1ccc(Cl)cc1)NCCCn1ccnc1	114 to 116
COCCC(=O)OC[C@@H](O)[C@@H]1CC(c2ccc(-c3ccc(N4C[C@H](Cn5ccnn5)OC4=O)cc3F)cn2)=NO1	130
COC(Cc1ccc(OCCN(C)c2nc3ccccc3o2)cc1)C(=O)O (stereo unspecified)	121 to 123
NC(=O)N(O)CC#Cc1ccc(F)c(C2=N[C@H](c3ccccc3)CO2)c1	173 to 174
COC(=O)C(C)(C)C(=O)c1ccc(-n2cncn2)cc1	84 to 85
N#Cc1cc(-c2ccccc2F)[nH]c1Cl	218 to 220
COc1cc(-n2cc(C(=O)O)c(=O)c3cc(F)c(F)c(C)c32)ccc1F	> 280

Compound	melting point [°C]
CCCCCCCCCCCCN=C=S	75 to 80
CCOC(=O)c1ccc(C#CCOc2cc3c(cc2C=O)C(C)(C)CCC3(C)C)cc1	114 to 115
COc1ccc2nc(SC3CCCc4ccc(O)nc43)[nH]c2c1 (stereo unspecified)	217 to 218
COc1cc2ncc(C#N)c(Nc3ccc(F)c(Cl)c3)c2cc1NC(=O)C=CCN(C)CCO	210 to 214
CCCC1(CCC)c2ccccc2-c2ccc(O)cc21	116 to 117
CCn1c(=O)c(C(=O)NCCO)c(NCCO)c2cnc(-c3ccccc3)nc21	250 to 253
Nc1ccc(Br)cc1C(=O)NCCCn1ccnc1	154 to 156
NC(CCCCCCCCC(N)=NO)=NO	182
Cc1ccc2nc3[nH]c(=O)[nH]c3cc2c1C	> 300
Cc1cccc2c3c(n(Cc4ccccc4)c12)CCCC3=O	165 to 166
O=c1oc(-c2snnc2C2CC2)nc2ccccc12	164 to 165
Cn1cnnc1C(O)(c1ccc(Cl)cc1)c1ccc2c(c1)c(-c1cccc(Cl)c1)cc(=O)n2Cc1ccc(C#N)cc1 (stereo unspecified)	185
CCc1noc(CN2C(=O)c3ccccc3C2=O)n1	106 to 107
CCNc1nc(C=O)cs1	84 to 85
CC(C)c1cccc(C(C)C)c1NC(=O)CNC(c1ccccn1)c1ccccn1	134 to 135
Cc1ccc([N+](=O)[O-])c(C)c1C1OCCO1	69 to 71
CCCCn1c(C)c(C2(c3c(C)n(CCCC)c4ccccc34)NNC(=O)c3ccccc32)c2ccccc21	206
CC(C)(C)OC(=O)c1ncn2c1[C@@H]1CCN1C(=O)c1c(Br)cccc1-2	240 to 241
CC(C)(C)OC(=O)N1CCC(Nc2cccc(NC(=O)c3ccc(F)cc3)n2)CC1	82.7
O=C(NN=Cc1c(O)ccc2cc(O)ccc12)c1cc2ccccc2cc1O	> 280
COC(=O)C(C)Oc1ccc(NC(=O)OCCO)cc1 (stereo unspecified)	90.5 to 92.8
CC1(C)C(=O)C(C)(C)c2cc(CCN3CCN(c4nsc5ccccc45)CC3)ccc21	122 to 126
COc1cc2c(cc1CCNC(=O)c1cc(OC)c(OC)c(OC)c1)CCC2	144 to 145
CSc1nc2ccnn2c(NCc2ccco2)c1C#N	110
Clc1ccc(C2(CCBr)OCC(c3ccc(Cl)cc3Cl)O2)cc1 (stereo unspecified)	82.7
